From ChEMBL document CHEMBL1141978, “Synthesis and antibacterial activities of 5-hydroxy-4-amino-2(5H)-furanones” (2005)
Converted amounts (≈) assume the structure as drawn.

Columns and labels:
Pseudomonas aeruginosa [1] = test: Zone of inhibition of Pseudomonas aeruginosa after treatment with the compound; format: functional
Staphylococcus aureus [2] = test: Zone of inhibition of Staphylococcus aureus after treatment with compound; format: functional
Escherichia coli [3] = test: Zone of inhibition of Escherichia coli after treatment with the compound; format: functional
Staphylococcus aureus [4] = test: Zone of inhibition of Staphylococcus aureus after treatment with the compound; format: functional
Pseudomonas aeruginosa [5] = test: Zone of inhibition of Pseudomonas aeruginosa after treatment with 10 ug of the compound; format: functional, organism-based
Escherichia coli [6] = test: Zone of inhibition of Escherichia coli after treatment with 10 ug of the compound; format: functional, organism-based
Staphylococcus aureus [7] = test: Zone of inhibition of Staphylococcus aureus after treatment with 10 ug of the compound; format: functional, organism-based
Pseudomonas aeruginosa [8] = test: Minimum […] concentration in Pseudomonas aeruginosa P7 strain was determined; format: functional
Escherichia coli [9] = test: Minimum inhibitory concentration in Escherichia coli E3 strain was determined; format: functional
Pseudomonas aeruginosa [10] = test: Minimum inhibitory concentration in Pseudomonas aeruginosa P7 strain was determined; format: functional
Staphylococcus aureus [11] = test: Minimum inhibitory concentration in Staphylococcus aureus ATCC 25923 strian was determined; format: functional
Escherichia coli [12] = test: Minimum […] concentration Escherichia coli ATCC 25922 strain was determined; format: functional
Escherichia coli [13] = test: Minimum […] concentration in Escherichia coli E3 strain was determined; format: functional
Pseudomonas aeruginosa [14] = test: Minimum inhibitory concentration in Pseudomonas aeruginosa P12 strain was determined; format: functional
Staphylococcus aureus [15] = test: Minimum […] concentration in Staphylococcus aureus S2 strain was determined; format: functional
Escherichia coli [16] = test: Minimum inhibitory concentration in Escherichia coli ATCC 25922 strain was determined; format: functional
Acinetobacter sp. [17] = test: Minimum inhibitory concentration in Acinetobacter species A1 strain was determined; format: functional
[18] = Minimum […] concentration in Enterobacter En3 strain was determined; format: functional
[19] = Minimum inhibitory concentration in Enterobacter En3 strain was determined; format: functional
Staphylococcus aureus [20] = test: Minimum […] concentration in Staphylococcus aureus S1 strain was determined; format: functional
Pseudomonas aeruginosa [21] = test: Minimum inhibitory concentration in Pseudomonas aeruginosa ATCC 27853 strain was determined; format: functional
Staphylococcus aureus [22] = test: Minimum inhibitory concentration in Staphylococcus aureus S2 strain was determined; format: functional
Acinetobacter sp. [23] = test: Minimum […] concentration in Acinetobacter species A2 strain was determined; format: functional
Escherichia coli [24] = test: Minimum inhibitory concentration in Escherichia coli E1 strain was determined; format: functional
Klebsiella pneumoniae [25] = test: Minimum […] concentration in Klebsiella pneumoniae K1 strain was determined; format: functional
Acinetobacter sp. [26] = test: Minimum inhibitory concentration in Acinetobacter species A2 strain was determined; format: functional
Escherichia coli [27] = test: Minimum […] concentration in Escherichia coli E1 strain was determined; format: functional
Staphylococcus aureus [28] = test: Minimum […] concentration in Staphylococcus aureus ATCC 25923 strain was determined; format: functional
Klebsiella pneumoniae [29] = test: Minimum inhibitory concentration in Klebsiella pneumoniae K2 strain was determined; format: functional
Pseudomonas aeruginosa [30] = test: Minimum […] concentration in Pseudomonas aeruginosa P12 strain was determined; format: functional
Staphylococcus aureus [31] = test: Minimum inhibitory concentration in Staphylococcus aureus S1 strain was determined; format: functional
Klebsiella pneumoniae [32] = test: Minimum […] concentration in Klebsiella pneumoniae K2 strain was determined; format: functional
Acinetobacter sp. [33] = test: Minimum […] concentration in Acinetobacter species A1 strain was determined; format: functional
[34] = Minimum […] concentration in Enterobacter En1 strain was determined; format: functional
[35] = Minimum inhibitory concentration in Enterobacter En1 strain was determined; format: functional
Pseudomonas aeruginosa [36] = test: Minimum […] concentration in Pseudomonas aeruginosa ATCC 27853 was determined; format: functional
Klebsiella pneumoniae [37] = test: Minimum inhibitory concentration in Klebsiella pneumoniae K1 strain was determined; format: functional
Pseudomonas aeruginosa [38] = test: Zone of inhibition of Pseudomonas aeruginosa after treatment with the 30 ug of the compound; format: functional
Staphylococcus aureus [39] = test: Zone of inhibition of Staphylococcus aureus after treatment with the 30 ug of the compound; format: functional
Escherichia coli [40] = test: Zone of inhibition of Escherichia coli after treatment with the 30 ug of the compound; format: functional

| Compound | Inhibition (Pseudomonas aeruginosa [1]) | Inhibition (Staphylococcus aureus [2]) | Inhibition (Escherichia coli [3]) | MBC (Pseudomonas aeruginosa [8]) | MIC (Escherichia coli [9]) | MIC (Pseudomonas aeruginosa [10]) | MIC (Staphylococcus aureus [11]) | MBC (Escherichia coli [12]) | MBC (Escherichia coli [13]) | MIC (Pseudomonas aeruginosa [14]) | MBC (Staphylococcus aureus [15]) | MIC (Escherichia coli [16]) | MIC (Acinetobacter sp. [17]) | MBC [18] | MIC [19] | MBC (Staphylococcus aureus [20]) | MIC (Pseudomonas aeruginosa [21]) | MIC (Staphylococcus aureus [22]) | MBC (Acinetobacter sp. [23]) | MIC (Escherichia coli [24]) | other results |
| --- | --- | --- | --- | --- | --- | --- | --- | --- | --- | --- | --- | --- | --- | --- | --- | --- | --- | --- | --- | --- | --- |
| C/N=C1\C(Br)=C(O)OC1O (stereo unspecified) | 7 mm | 16 mm | 9 mm |  |  |  |  |  |  |  |  |  |  |  |  |  |  |  |  |  |  |
| C[S+](C)[O-] [DIMETHYL SULFOXIDE] | 0 mm |  | 0 mm |  |  |  |  |  |  |  |  |  |  |  |  |  |  |  |  |  | Inhibition (Staphylococcus aureus [4]): 0 mm |
| GENTAMICIN |  |  |  |  |  |  |  |  |  |  |  |  |  |  |  |  |  |  |  |  | Inhibition (Pseudomonas aeruginosa [5]): 0 mm; Inhibition (Escherichia coli [6]): 25 mm; Inhibition (Staphylococcus aureus [7]): 31 mm |
| OC1=C(Cl)/C(=N\Cc2ccccc2)C(O)O1 (stereo unspecified) | 6 mm | 16 mm | 6 mm | 32 µg/mL (≈ 134 µM) | 16 µg/mL (≈ 66.8 µM) | 32 µg/mL (≈ 134 µM) | 4 µg/mL (≈ 16.7 µM) | 16 µg/mL (≈ 66.8 µM) | 32 µg/mL (≈ 134 µM) | 16 µg/mL (≈ 66.8 µM) | 32 µg/mL (≈ 134 µM) | 8 µg/mL (≈ 33.4 µM) | 4 µg/mL (≈ 16.7 µM) | 32 µg/mL (≈ 134 µM) | 16 µg/mL (≈ 66.8 µM) | 32 µg/mL (≈ 134 µM) | 32 µg/mL (≈ 134 µM) | 32 µg/mL (≈ 134 µM) | 16 µg/mL (≈ 66.8 µM) | 16 µg/mL (≈ 66.8 µM) | MBC (Klebsiella pneumoniae [25]): 32 µg/mL (≈ 134 µM); MIC (Acinetobacter sp. [26]): 8 µg/mL (≈ 33.4 µM); MBC (Escherichia coli [27]): 16 µg/mL (≈ 66.8 µM); MBC (Staphylococcus aureus [28]): 8 µg/mL (≈ 33.4 µM); MIC (Klebsiella pneumoniae [29]): 16 µg/mL (≈ 66.8 µM); MBC (Pseudomonas aeruginosa [30]): 32 µg/mL (≈ 134 µM); MIC (Staphylococcus aureus [31]): 16 µg/mL (≈ 66.8 µM); MBC (Klebsiella pneumoniae [32]): 32 µg/mL (≈ 134 µM); MBC (Acinetobacter sp. [33]): 8 µg/mL (≈ 33.4 µM); MBC [34]: 16 µg/mL (≈ 66.8 µM); MIC [35]: 8 µg/mL (≈ 33.4 µM); MBC (Pseudomonas aeruginosa [36]): 64 µg/mL (≈ 267 µM); MIC (Klebsiella pneumoniae [37]): 32 µg/mL (≈ 134 µM) |
| C/N=C1\C(Cl)=C(O)OC1O (stereo unspecified) | 8 mm | 10 mm | 11 mm | 64 µg/mL (≈ 391 µM) | 64 µg/mL (≈ 391 µM) | 32 µg/mL (≈ 196 µM) | 8 µg/mL (≈ 48.9 µM) | 32 µg/mL (≈ 196 µM) | 64 µg/mL (≈ 391 µM) | 32 µg/mL (≈ 196 µM) | 8 µg/mL (≈ 48.9 µM) | 16 µg/mL (≈ 97.8 µM) | 8 µg/mL (≈ 48.9 µM) | 32 µg/mL (≈ 196 µM) | 32 µg/mL (≈ 196 µM) | 32 µg/mL (≈ 196 µM) | 16 µg/mL (≈ 97.8 µM) | 4 µg/mL (≈ 24.5 µM) | 64 µg/mL (≈ 391 µM) | 32 µg/mL (≈ 196 µM) | MBC (Klebsiella pneumoniae [25]): 32 µg/mL (≈ 196 µM); MIC (Acinetobacter sp. [26]): 64 µg/mL (≈ 391 µM); MBC (Escherichia coli [27]): 32 µg/mL (≈ 196 µM); MBC (Staphylococcus aureus [28]): 16 µg/mL (≈ 97.8 µM); MIC (Klebsiella pneumoniae [29]): 32 µg/mL (≈ 196 µM); MBC (Pseudomonas aeruginosa [30]): 64 µg/mL (≈ 391 µM); MIC (Staphylococcus aureus [31]): 16 µg/mL (≈ 97.8 µM); MBC (Klebsiella pneumoniae [32]): 64 µg/mL (≈ 391 µM); MBC (Acinetobacter sp. [33]): 16 µg/mL (≈ 97.8 µM); MBC [34]: 64 µg/mL (≈ 391 µM); MIC [35]: 32 µg/mL (≈ 196 µM); MBC (Pseudomonas aeruginosa [36]): 32 µg/mL (≈ 196 µM); MIC (Klebsiella pneumoniae [37]): 16 µg/mL (≈ 97.8 µM) |
| O=C(N[C@H](CO)[C@H](O)c1ccc([N+](=O)[O-])cc1)C(Cl)Cl [CHLORAMPHENICOL] |  |  |  |  |  |  |  |  |  |  |  |  |  |  |  |  |  |  |  |  | Inhibition (Pseudomonas aeruginosa [38]): 0 mm; Inhibition (Staphylococcus aureus [39]): 0 mm; Inhibition (Escherichia coli [40]): 15 mm |
| N=C1C(Cl)=C(O)OC1O (stereo unspecified) | 8 mm | 16 mm | 8 mm | 64 µg/mL (≈ 428 µM) | 64 µg/mL (≈ 428 µM) | 32 µg/mL (≈ 214 µM) | 16 µg/mL (≈ 107 µM) | 128 µg/mL (≈ 856 µM) | 128 µg/mL (≈ 856 µM) | 64 µg/mL (≈ 428 µM) | 8 µg/mL (≈ 53.5 µM) | 64 µg/mL (≈ 428 µM) | 16 µg/mL (≈ 107 µM) | 64 µg/mL (≈ 428 µM) | 64 µg/mL (≈ 428 µM) | 16 µg/mL (≈ 107 µM) | 32 µg/mL (≈ 214 µM) | 4 µg/mL (≈ 26.7 µM) | 64 µg/mL (≈ 428 µM) | 32 µg/mL (≈ 214 µM) | MBC (Klebsiella pneumoniae [25]): 64 µg/mL (≈ 428 µM); MIC (Acinetobacter sp. [26]): 32 µg/mL (≈ 214 µM); MBC (Escherichia coli [27]): 64 µg/mL (≈ 428 µM); MBC (Staphylococcus aureus [28]): 32 µg/mL (≈ 214 µM); MIC (Klebsiella pneumoniae [29]): 128 µg/mL (≈ 856 µM); MBC (Pseudomonas aeruginosa [30]): 128 µg/mL (≈ 856 µM); MIC (Staphylococcus aureus [31]): 16 µg/mL (≈ 107 µM); MBC (Klebsiella pneumoniae [32]): 128 µg/mL (≈ 856 µM); MBC (Acinetobacter sp. [33]): 32 µg/mL (≈ 214 µM); MBC [34]: 64 µg/mL (≈ 428 µM); MIC [35]: 64 µg/mL (≈ 428 µM); MBC (Pseudomonas aeruginosa [36]): 64 µg/mL (≈ 428 µM); MIC (Klebsiella pneumoniae [37]): 32 µg/mL (≈ 214 µM) |
